Source: US9834558B2, “Substituted bridged urea analogs as sirtuin modulators” (GLAXOSMITHKLINE LLC, priority 2013, dated 2017)
Read-outs that look alike come from different tables or passages of the source. Blank lines part the entries; values can stand above or below the compound they belong to.

Target: T1, SIRT1 (Homo sapiens, UniProt Q96EB6)
T1 sequence (Q96EB6 1-747): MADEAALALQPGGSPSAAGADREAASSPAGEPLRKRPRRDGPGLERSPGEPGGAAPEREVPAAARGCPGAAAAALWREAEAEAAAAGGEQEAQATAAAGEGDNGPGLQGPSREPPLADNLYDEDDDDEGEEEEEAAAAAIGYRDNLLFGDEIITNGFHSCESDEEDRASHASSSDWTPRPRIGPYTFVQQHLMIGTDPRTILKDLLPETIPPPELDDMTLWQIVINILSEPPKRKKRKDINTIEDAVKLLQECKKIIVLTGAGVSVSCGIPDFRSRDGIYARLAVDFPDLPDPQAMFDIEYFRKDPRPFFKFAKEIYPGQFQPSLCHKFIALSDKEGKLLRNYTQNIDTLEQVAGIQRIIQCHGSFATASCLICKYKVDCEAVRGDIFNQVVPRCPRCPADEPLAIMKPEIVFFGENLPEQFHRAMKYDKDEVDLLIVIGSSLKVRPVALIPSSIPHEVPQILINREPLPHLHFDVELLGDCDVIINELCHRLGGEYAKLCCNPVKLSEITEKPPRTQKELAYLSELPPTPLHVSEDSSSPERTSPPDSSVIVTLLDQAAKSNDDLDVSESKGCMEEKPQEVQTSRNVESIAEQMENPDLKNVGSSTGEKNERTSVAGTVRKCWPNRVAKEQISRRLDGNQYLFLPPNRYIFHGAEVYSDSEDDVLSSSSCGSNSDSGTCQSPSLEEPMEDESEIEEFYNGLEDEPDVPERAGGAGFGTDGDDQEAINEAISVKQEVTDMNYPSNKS
Experiment: Trp mass spectrometry assay of SIRT1 activation
Assay type: biochemical
Conditions: for TRP Activity (EC1.5): EC1.5 = concentration that results in 150% activation of SIRT1
Procedure, shortened: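 Activation read-out: mass-spec measurement of O-acetyl-ADP-ribose or deacetylated Trp peptide versus compound-free controls, giving EC1.5 and Percent Maximum Activation. Reactions ran 25 min at 25 °C, pH 7.5, with 120 μM βNAD+, 0.5 μM acetylated p53-derived peptide and 10 nM His-tagged SIRT1.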

[1] = Trp mass spectrometry assay, concentration of test compound giving 150% activation of SIRT1
[2] = concentration giving 150% activation of SIRT1, Trp peptide substrate
[3] = Trp mass spectrometry assay, EC1.5 = concentration of test compound that results in 150% activation of SIRT1
[4] = Trp peptide substrate, concentration giving 150% activation of SIRT1
[5] = Trp peptide assay, maximum activity relative to control (100%), read-out: TRP MAX RESP (percent maximum fold activation)

Tryp AVG EC1.5 (μM) [1]: A (A (EC1.5<1 μM))
SMILES: O=C(Nc1cccc(-c2cnco2)c1)N1c2nc(-c3cccc(Cl)c3)ccc2N2CC[C@H]1C2 [Example 365]

Tryp AVG EC1.5 (μM) [1]: A (A (EC1.5<1 μM))
SMILES: COc1cc(NC(=O)N2c3nc(-c4cncc(Cl)c4)ccc3N3CCC[C@H]2C3)ncn1 [Example 405]

Tryp AVG EC1.5 (μM) [2]: A (A (EC1.5<1 μM))
SMILES: CCCC(=O)c1cccc(NC(=O)N2c3nc(-c4cccc(C(F)(F)F)c4)ccc3N3CC[C@H]2C3)c1 [Example 736]

Tryp AVG EC1.5 (μM) [3]: B (B (EC1.5 1-25 μM))
SMILES: O=C(Nc1cnccn1)N1c2nc(-c3cccnc3)ccc2N2CCC[C@H]1C2 [Example 454]

Tryp AVG EC1.5 (μM) [3]: A (A (EC1.5<1 μM))
SMILES: O=C(Nc1cccnc1)N1c2nc(-c3cccc(N4CCOCC4)c3)ccc2N2CCC[C@H]1C2 [Example 538]

Tryp AVG EC1.5 (μM) [2]: A (A (EC1.5<1 μM))
SMILES: Cc1cc(-c2ccc3c(n2)N(C(=O)Nc2cncc(-c4cnco4)c2)[C@H]2CCN3C2)ccn1 [Example 748]

Tryp AVG EC1.5 (μM) [2]: B (B (EC1.5 1-25 μM))
SMILES: Cc1cncc(NC(=O)N2c3nc(-c4cccc(Cl)c4)ccc3N3C[C@@H](O)[C@H]2C3)c1 [Example 677]

Tryp AVG EC1.5 (μM) [3]: A (A (EC1.5<1 μM))
SMILES: O=C(Nc1cnccn1)N1c2nc(-c3ccc(Cl)c(Cl)c3)ccc2N2CC[C@H]1C2 [Example 461]

Tryp AVG EC1.5 (μM) [3]: B (B (EC1.5 1-25 μM)) | Emax (Trp mass spectrometry assay, percent maximum fold activation of SIRT1, read-out: Tryp % Fold Act): > 150%
SMILES: O=C(Nc1cnccn1)N1c2nc(-c3cccc(Cl)c3)cc(O)c2N2CCC[C@H]1C2 [Example 443]

Tryp AVG EC1.5 (μM) [3]: B (B (EC1.5 1-25 μM))
SMILES: O=C(NCc1ccccc1)N1c2nc(-c3cccc(C(F)(F)F)c3)ccc2N2CC[C@H]1C2 [Example 597]

Tryp AVG EC1.5 (μM) [4]: B (B (EC1.5 1-25 μM))
SMILES: Cc1cc(OCC(O)CO)nc(NC(=O)N2c3nc(-c4cccc(C(F)(F)F)c4)ccc3N3CC[C@H]2C3)n1 (stereo partly drawn) [Example 26]

Tryp AVG EC1.5 (μM) [3]: C (C (EC1.5>25 μM))
SMILES: Cc1ccncc1-c1ccc2c(n1)N(C(=O)Nc1cccnn1)[C@H]1CCCN2C1 [Example 520]

Tryp AVG EC1.5 (μM) [4]: A (A (EC1.5<1 μM))
SMILES: O=C(Nc1cccnc1)N1c2nc(C3CCCC(C(F)(F)F)C3)ccc2N2CC[C@H]1C2 (stereo partly drawn) [Example 99]

Tryp AVG EC1.5 (μM) [2]: A (A (EC1.5<1 μM))
SMILES: CC(C)(C)OC(=O)NCCNC(=N)c1ccc(NC(=O)N2c3nc(-c4cccc(C(F)(F)F)c4)ccc3N3CCC[C@H]2C3)cc1 [Example 788]

Tryp AVG EC1.5 (μM) [3]: A (A (EC1.5<1 μM))
SMILES: O=C(Nc1cccc(-c2cnco2)n1)N1c2nc(-c3cccc(C(F)(F)F)c3)ccc2N2CC[C@H]1C2 [Example 588]

Tryp AVG EC1.5 (μM) [1]: B (B (EC1.5 1-25 μM))
SMILES: CN(C)c1cccc(-c2ccc3c(n2)N(C(=O)Nc2ccc(F)cn2)[C@H]2CCCN3C2)c1 [Example 384]

TRP Activity (EC1.5) (Trp peptide assay): B (B (EC1.5 1-25 μM)) | Emax [5]: > 150%
SMILES: Cc1ncc(-c2ccc3c(n2)N(C(=O)Nc2cccnc2)[C@H]2CCN3C2)cc1F [(9S)-5-(5-fluoro-6-methylpyridin-3-yl)-N-(pyridin-3-yl)-1,6,8-triazatricyclo[7.2.1.0 {2,7}]dodeca-2(7),3,5-triene-8-carboxamide]

Tryp AVG EC1.5 (μM) [2]: C (C (EC1.5>25 μM))
SMILES: Cc1nccn1CCCNC(=O)N1c2nc(-c3cccc(C(F)(F)F)c3)ccc2N2CC[C@H]1C2 [Example 632]

TRP Activity (EC1.5) (Trp peptide assay): B (B (EC1.5 1-25 μM)) | Emax (read-out: TRP MAX RESP (percent maximum fold activation)): > 150%
SMILES: Cc1cc(-c2ccc3c(n2)N(C(=O)Nc2ncnc4[nH]cnc24)[C@H]2CCN3C2)ccn1 [(9S)-5-(2-methylpyridin-4-yl)-N-(9H-purin-6-yl)-1,6,8-triazatricyclo[7.2.1.0^{2,7}]dodeca-2,4,6-triene-8-carboxamide]

Tryp AVG EC1.5 (μM) [3]: B (B (EC1.5 1-25 μM))
SMILES: O=C(Nc1cnccn1)N1c2nc(-c3cncc(Cl)c3)ccc2N2CCC1CC2 [Example 550]

Tryp AVG EC1.5 (μM) [3]: A (A (EC1.5<1 μM))
SMILES: O=C(Nc1cccc(C(F)(F)F)c1)N1c2nc(-c3cccc(C(F)(F)F)c3)ccc2N2CC[C@H]1C2 [Example 617]

TRP Activity (EC1.5) (Trp peptide assay): A (A (EC1.5<1 μM)) | Emax [5]: > 150%
SMILES: Cc1cc(-c2ccc3c(n2)N(C(=O)Nc2ccc4c(c2)OCO4)[C@H]2CCN3C2)ccn1 [(9S)-N-(2H-1,3-benzodioxo1-5-yl)-5-(2-methylpyridin-4-yl)-1,6,8-triazatricyclo[7.2.1.0 {2,7}]dodeca-2(7),3,5-triene-8-carboxamide]

Tryp AVG EC1.5 (μM) [3]: B (B (EC1.5 1-25 μM))
SMILES: Cc1n[nH]c(C)c1-c1ccc2c(n1)N(C(=O)Nc1cccnc1)[C@H]1CCN2C1 [Example 525]

Tryp AVG EC1.5 (μM) [4]: A (A (EC1.5<1 μM))
SMILES: CCn1ncc2c(NC(=O)N3c4nc(-c5cccc(C(F)(F)F)c5)ccc4N4CC[C@H]3C4)cccc21 [81 (9)]

TRP Activity (EC1.5) (Trp peptide assay): B (B (EC1.5 1-25 μM)) | Emax [5]: > 150%
SMILES: O=C(Nc1ccccc1CCC(F)(F)F)N1c2nc(Cl)ccc2N2CC[C@H]1C2 [(9S)-5-chloro-N-[2-(3,3,3-trifluoropropyl)phenyl]-1,6,8-triazatricyclo[7.2.1.0 {2,7}]dodeca-2(7),3,5-triene-8-carboxamide]

Tryp AVG EC1.5 (μM) [2]: A (A (EC1.5<1 μM))
SMILES: O=C(Nc1ccncc1)N1c2nc(-c3cccc(C(F)(F)F)c3)ccc2N2CC[C@H]1C2 [Example 817]

Tryp AVG EC1.5 (μM) [3]: B (B (EC1.5 1-25 μM))
SMILES: O=C(Nc1cncc(F)c1)N1c2nc(-c3cccc(C(F)(F)F)c3)ccc2S(=O)(=O)N2CC[C@H]1C2 [Example 460]

TRP Activity (EC1.5) (Trp peptide assay): B (B (EC1.5 1-25 μM)) | Emax [5]: > 150%
SMILES: CN1CCN(c2ccc3c(n2)N(C(=O)Nc2cnccn2)[C@H]2CCN3C2)CC1 [(9S)-5-(4-methylpiperazin-1-yl)-N-(pyrazin-2-yl)-1,6,8-triazatricyclo[7.2.1.0 {2,7}]dodeca-2(7),3,5-triene-8-carboxamide]

Tryp AVG EC1.5 (μM) [2]: B (B (EC1.5 1-25 μM))
SMILES: C#CCOc1cccc(NC(=O)N2c3nc(-c4ccc(C5(C(F)(F)F)N=N5)cc4)ccc3N3CC[C@H]2C3)c1 [Example 802]

TRP Activity (EC1.5) (Trp peptide assay): A (A (EC1.5<1 μM)) | Emax [5]: > 150%
SMILES: O=C(Nc1cccnn1)N1c2nc(-c3ccnc(C(F)(F)F)c3)ccc2N2CCC[C@H]1C2 [(9S)-N-(pyridazin-3-yl)-5-[2-(trifluoromethyl)pyridin-4-yl]-1,6,8-triazatricyclo[7.3.1.0 {2,7}]trideca-2(7),3,5-triene-8-carboxamide]

TRP Activity (EC1.5) (Trp peptide assay): B (B (EC1.5 1-25 μM)) | Emax [5]: > 150%
SMILES: O=C(c1ccc2c(n1)N(C(=O)Nc1ccccn1)[C@H]1CCN2C1)N1CCC(F)(F)C1 [(9S)-5-[(3,3-difluoropyrrolidin-1-yl)carbonyl]-N-(pyridin-2-yl)-1,6,8-triazatricyclo[7.2.1.0 {2,7}]dodeca-2(7),3,5-triene-8-carboxamide]

TRP Activity (EC1.5) (Trp peptide assay): C (C (EC1.5>25 μM)) | Emax [5]: < 150%
SMILES: Cc1cc(-c2ccc3c(n2)N(C(=O)N2CCOCC2)[C@H]2CCN3C2)ccn1 [(9S)-5-(2-methylpyridin-4-yl)-8-[(morpholin-4-yl)carbonyl]-1,6,8-triazatricyclo[7.2.1.0 {2,7}]dodeca-2,4,6-triene]

TRP Activity (EC1.5) (Trp peptide assay): C (C (EC1.5>25 μM)) | Emax [5]: < 150%
SMILES: Cc1ccc(-c2ccc3c(n2)N(C(=O)NCC(C)(C)C)[C@H]2CCN3C2)cn1 [(9S)-N-(2,2-dimethylpropyl)-5-(6-methylpyridin-3-yl)-1,6,8-triazatricyclo[7.2.1.0 {2,7}]dodeca-2(7),3,5-triene-8-carboxamide]

Tryp AVG EC1.5 (μM) [1]: A (A (EC1.5<1 μM))
SMILES: O=C(Nc1ccccn1)N1c2nc(-c3cc(F)cc(C(F)(F)F)c3)ccc2N2CC[C@H]1C2 [Example 333]

TRP Activity (EC1.5) (Trp peptide assay): B (B (EC1.5 1-25 μM)) | Emax [5]: > 150%
SMILES: Cc1cc(-c2ccc3c(n2)N(C(=O)NC2CCCC2)[C@H]2CCN3C2)ccn1 [(9S)-N-cyclopentyl-5-(2-methylpyridin-4-yl)-1,6,8-triazatricyclo[7.2.1.0 {2,7}]dodeca-2,4,6-triene-8-carboxamide]

TRP Activity (EC1.5) (Trp peptide assay): B (B (EC1.5 1-25 μM)) | Emax [5]: > 150%
SMILES: Cc1ccc(-c2ccc3c(n2)N(C(=O)NC(C)C)[C@H]2CCN3C2)cn1 [(9S)-5-(6-methylpyridin-3-yl)-N-(propan-2-yl)-1,6,8-triazatricyclo[7.2.1.0^{2,7}]dodeca-2,4,6-triene-8-carboxamide]

TRP Activity (EC1.5) (Trp peptide assay): B (B (EC1.5 1-25 μM)) | Emax [5]: > 150%
SMILES: Cc1cc(-c2ccc3c(n2)N(C(=O)Nc2cncnc2)[C@H]2CCCN3C2)ccn1 [(9S)-5-(2-methylpyridin-4-yl)-N-(pyrimidin-5-yl)-1,6,8-triazatricyclo[7.3.1.0 {2,7}]trideca-2(7),3,5-triene-8-carboxamide]

Tryp AVG EC1.5 (μM) [1]: A (A (EC1.5<1 μM))
SMILES: CS(=O)(=O)c1cncc(-c2ccc3c(n2)N(C(=O)Nc2ccccn2)[C@H]2CCCN3C2)c1 [Example 375]
